Molecules are shown by their SMILES.

Six compounds from ChEMBL document CHEMBL5532716, “UPLC-Q-TOF-MS/MS-Based Targeted Discovery of Chetomin Analogues from Chaetomium cochliodes” (J Nat Prod, 2024) can be followed below.

In one test the test system is HeLa. Put plainly: Cytotoxicity against human HeLa cells assessed as inhibition of cell viability by MTT assay. Format: functional, cell-based.
Another test relates to A549. Put plainly: Cytotoxicity against human A549 cells assessed as inhibition of cell viability by MTT assay. It is filed as functional, cell-based. On the technique in general: Tetrazolium dyes change colour on reduction, which living cells bring about.

As for `CN1C(=O)[C@]2(Cc3c[nH]c4ccccc34)SSSS[C@@]1(CO)C(=O)N2C`, the IC50 (as a rule, the point on the concentration scale where inhibition reaches its midpoint) in the test on HeLa was 1.9 µM; in the test on A549, 2.2 µM.
Taken in the same sequence, the figures for `CNC(=O)[C@@]12C[C@]3(n4cc(C[C@@]56SSSS[C@@](CO)(C(=O)N5C)N(C)C6=O)c5ccccc54)c4ccccc4N[C@@H]3N1C(=O)C(=O)N[C@H]2C` were 1.6 µM and 1.9 µM.
Taken in the same sequence, the figures for `CS[C@@]12Cc3c([nH]c4ccccc34)[C@@](CO)(NC1=O)C(=O)N2` were 25 µM and 25 µM.
Taken in the same sequence, the figures for `CS[C@@]1(CO)C(=O)N/C(=C\c2c[nH]c3ccccc23)C(=O)N1C` were 30 µM and 30 µM.
For `CN1C(=O)[C@]2(Cc3cn([C@]45C[C@@]67SS[C@@](CO)(C(=O)N6[C@H]4Nc4ccccc45)N(C)C7=O)c4ccccc34)SS[C@@]1(CO)C(=O)N2C` [CHETOMIN], the 50% inhibitory concentration (IC50) with HeLa came out at 2.4 µM; in the test with A549, 3.5 µM.
In the case of `CS[C@]1(CO)NC(=O)[C@](Cc2c[nH]c3ccccc23)(SC)NC1=O` [CHETOSEMINUDIN C], the values for the IC50 with HeLa and in the test with A549 were 33 µM and 30 µM, respectively.
